The results in this text go back to patent US5770624A, “Certain alpha-substituted arylsulfonamido acetohydroxamic acids” (priority 1996, dated 1998).

Counter-ions that a name gives are not always drawn.

Test [1] concerns the target T1, recombinant human stromelysin (Homo sapiens, UniProt P08254).
T1 construct: recombinant human stromelysin (mol. wt. 45-47 kDa, 2 Units)
Description: Inhibition of stromelysin activity (hydrolysis of Substance P). The class given is biochemical. The note with it: 30 min at 37° C. The procedure:
One test to determine the inhibition of stromelysin activity is based on its hydrolysis of Substance P using a modified procedure of Harrison et al (Harrison, […]., and Stein R., A semicontinuous, high performance chromatography based assay for stromelysin, Anal. Biochem. 18, 110-113 (1989)). In this assay, Substance P is hydrolyzed by recombinant human stromelysin to generate a fragment, Substance P 7-11, which can be quantitated by HPLC. In a typical assay, a 10 mM stock solution of a compound to be tested is diluted in the assay buffer to 50 μM, mixed 1:1 with 8 μg recombinant human stromelysin (mol. wt. 45-47 kDa, 2 Units; where 1 Unit produces […] of Substance P 7-11 in 30 minutes) and incubated along with 0.5 mM Substance P in a final volume of 0.125 ml for 30 minutes at 37° C. The reaction is stopped by adding 10 mM EDTA and Substance P 7-11 is quantified on RP-8 HPLC. The IC50 for inhibition of stromelysin activity and Ki are calculated from control reaction without the inhibitor.

Test [2] deals with T2, Human recombinant fibroblast collagenase (Homo sapiens, UniProt P03956).
T2 sequence (P03956 100-469): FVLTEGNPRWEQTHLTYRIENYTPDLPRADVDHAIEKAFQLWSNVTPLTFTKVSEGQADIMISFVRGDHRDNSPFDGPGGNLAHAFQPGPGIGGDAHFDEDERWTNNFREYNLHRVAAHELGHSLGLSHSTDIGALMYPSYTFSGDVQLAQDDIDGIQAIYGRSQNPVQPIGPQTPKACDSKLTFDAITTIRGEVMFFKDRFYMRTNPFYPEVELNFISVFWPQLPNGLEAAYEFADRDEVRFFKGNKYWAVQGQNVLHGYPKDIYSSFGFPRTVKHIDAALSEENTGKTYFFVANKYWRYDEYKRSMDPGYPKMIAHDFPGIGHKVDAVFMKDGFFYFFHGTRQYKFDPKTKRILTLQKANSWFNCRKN
As to the kind of experiment: Collagenase activity (digestion of bovine type I collagen). The class given is biochemical. The settings on record: 2 hours at 35° C., read-out: IC50 for inhibition of collagenase activity. The procedure: Collagenase activity is determined as follows: ninety six-well, flat-bottom microtiter plates are first coated with bovine type I collagen (35 ug/well) over a two-day period at 30° C. using a humidified and then dry atmosphere; plates are rinsed, air dried for 34 hours, sealed with Saran wrap and stored in a refrigerator. Human recombinant fibroblast collagenase and a test compound (or buffer) are added to wells (total volume =0.1 ml) and plates are incubated for 2 hours at 35° C. under humidified conditions; the amount of collagenase used per well is that causing approximately 80% of maximal digestion of collagen. The incubation media are removed from the wells, which are then rinsed with buffer, followed by water. Coomasie blue stain is added to the wells for 25 minutes, removed, and wells are again rinsed with water. Sodium dodecyl sulfate (20% in 50% dimethylformamide in water) is added to solubilize the remaining stained collagen and the optical density at 570 nm wave length is measured. The decrease in optical density due to collagenase (from that of collagen without enzyme) is compared to the decrease in optical density due to the enzyme in the presence of test compound, and percent inhibition of enzyme activity is calculated. IC50's are determined from a range of concentrations of inhibitors (4-5 concentrations, each tested in triplicate), and Ki values are calculated.

For test [3], the system named is TNF-alpha production by LPS-stimulated THP-1 cells. Description: Effect on the production of soluble TNF-alpha by LPS-stimulated THP-1 cells. The class given is cell-based. The settings on record: Homo sapiens, 30 min pre-incubation, 100 ng/ml LPS for 4 hours, ELISA. The procedure:
The effect on the production of soluble TNF-alpha by LPS-stimulated THP-1 cells can be determined as follows: Tissue culture medium used is RPM 1640 (Gibco cat #11875-036) containing 10% fetal calf serum, 1% penicillin and streptomycin. TBP-1 cells (ATCC #202-TIB) at 1×10+5 cells/well are added to 100 μl medium or test compound. Cells are pre-incubated with compound for 30 minutes in a 37° C. humidified chamber with 5% CO2 and then stimulated with 100 ng/ml of LPS (Sigma cat #L-4391) for 4 hours. Plates are then centrigued and […] of conditioned medium for TNF analysis is harvested. The amount of TNF-alpha in control and test cultures is determined by ELISA using recombinant TNF-alpha for the standard curve, using TNF ELISA plates (Genzyme) for TNF analysis. Absorbance readings and data calculations are performed on a Molecular Devices plate reader. Results are expressed in IC50 's of test compound.

The test system of test [4] is collagen-II induced arthritis in mice. Description: Collagen II induced arthritis model in mice. The class given is in vivo. The note with it: mouse, 100 mg/Kg p.o. The source says:
Antiinflammatory activity can be determined in standard inflammation and arthritic animal models well-known in the art, e.g. the adjuvant arthritis model in rats and the collagen II induced arthritis model in mice [Mediators of […]. 1, 273-279 (1992)].

The subject of test [5] is TNF-alpha (synovial fluid). Description: Effect on the synovial fluid concentration of TNF-alpha in an inflamed rat knee. The class given is in vivo, rat (Female lewis). The note with it: 50 mg/Kg p.o., dosed 1-4 h before LPS injected into both knees. The procedure: The effect on the synovial fluid concentration of TNF-alpha in an inflamed rat knee can be determined as follows: Female lewis rats are dosed by gavage with test compound in 0.1 ml cornstarch vehicle. One to four hours after administration of test compound 0.1 mg Lipopolysaccharide from E. coli 0127:B8 (Difco #3880-25-0) is injected into both knees. Two hours after intra-articular LPS injection, knees are lavaged with 0.1 ml saline and 2 lavages from same rat are pooled. TNF-alpha is measured using mouse TNF-alpha ELISA kit (Genzyme) which crossreacts with rat TNF-alpha Results are expressed as % inhibition of mean TNF-alpha concentration in synovial fluid from saline-injected knees.

The next test relates to TNF-alpha (plasma). As to the kind of experiment: Effect on the plasma concentration of TNF-alpha in the mouse following intravenous injection of endotoxin. The note with it: about 50 mg/Kg p.o., dosed 1-4 h before 0.1 mg/kg LPS i.v. The class given is in vivo, mouse (Female Balb-CbyJ). The procedure:
The effect on the plasma concentration of TNF-alpha in the mouse following intravenous injection of endotoxin can be determined as follows:
Female Balb-CbyJ mice are dosed by gavage with test compound in 0.1 ml cornstarch vehicle/10 grams body weight. One to four hours after administration of test compound, 0.1 mg/kg Lipopolysaccharide from E. coli 0127:B8 (Difco #3880-25-0) in saline is injected i.v. One hour after i.v. injection of LPS, blood is collected for determination of plasma TNF-alpha using mouse TNF-alpha ELISA kit (Genzyme). Eight mice are used per treatment group. Results are expressed as % inhibition of mean TNF-alpha concentration in control mice.

T1 sequence (P08254 100-477): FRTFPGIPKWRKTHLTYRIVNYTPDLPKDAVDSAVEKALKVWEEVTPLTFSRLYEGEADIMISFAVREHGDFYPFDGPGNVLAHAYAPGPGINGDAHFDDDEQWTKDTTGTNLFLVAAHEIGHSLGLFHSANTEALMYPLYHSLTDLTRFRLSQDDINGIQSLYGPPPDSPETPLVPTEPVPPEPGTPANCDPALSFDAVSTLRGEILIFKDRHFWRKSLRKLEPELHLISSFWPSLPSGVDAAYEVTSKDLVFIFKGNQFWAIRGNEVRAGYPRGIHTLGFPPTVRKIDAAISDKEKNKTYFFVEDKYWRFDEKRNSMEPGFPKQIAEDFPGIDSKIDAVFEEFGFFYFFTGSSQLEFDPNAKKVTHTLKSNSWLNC

On to `CCCO[C@H]1CC[C@H]([C@H](C(=O)NO)N(Cc2ccncc2)S(=O)(=O)c2ccc(OCC)cc2)CC1.Cl` [2(u), N-hydroxy-2(R)-[(4ethoxybenzenesulfonyl)(4-picolyl)amino]-2-(trans-4-propoxycyclohexyl)acetamide hydrochloride], for which the IC50 in test [1] was around 11 nM; in test [2] it was around 45 nM; in test [3], around 2500 nM. Also, the “inhibition of collagen-II induced arthritis in mice” value in test [4] is on record as “effective in inhibiting collagen-II induced arthritis”. Also, the “reduction of TNF-α concentration in the synovial fluid” value in test [5] is reported as around 98%.
For `CCCO[C@H]1CC[C@H]([C@H](C(=O)NO)N(Cc2ccncc2)S(=O)(=O)c2ccc(OC)cc2)CC1` [Example 1, hydrochloride], in the test on TNF-alpha (plasma), the “% inhibition of mean plasma TNF-alpha concentration in control mice” value is 50%. For the same compound, the IC50 is around 16 nM in test [1], around 80 nM in test [2] and around 2500 nM in test [3]. For the same compound, the “inhibition of collagen-II induced arthritis in mice” value in test [4] is on record as “effective in inhibiting collagen-II induced arthritis”. The “reduction of TNF-α concentration in the synovial fluid” value in test [5] is “about 70%”.

A word on the IC50: it is the concentration that inhibits the measured activity by half.
